Like-named read-outs stand apart in the source and are kept apart here.
Target: human SCN9A (Nav 1.7) (Homo sapiens, UniProt Q15858)
Experiment: Measurement of Na ion current (Nav 1.7) by automated patch clamp assay in cells stably-expressing human SCN9A
Format: cell-based
Conditions: read-out: Inhibitory rate (%) of Na ion current; for inhibition at 100 µM: compound concentration 100 μmol/L (footnoted examples)
Protocol: Measurement of Na Ion Current in Voltage-Dependent Na Channel Gene Expressed Cell Nav 1.7 current was measured by automated patch clamp assay using cells stably-expressing human SCN9A. Cells Stably-expressing Human SCN9A Tetracycline-induced cells stably-expressing SCN9A were obtained from ChanTest Corporation. […] Next day, the Na ion current was measured by automated patch clamp assay. Electrophysiologic Measurement of Na Ion Current The Na ion current was measured by automated patch clamp assay using the following extracellular solution and intracellular solution. […] The control of the stimulating pulse and the data acquisition were carried out using EPC10 amplifier and Patch Master Software (HEKA). Data were sampled at 10 kHz, and low-pass filtered at 3 kHz. All the measurements were carried out at room temperature. […] The inhibitory rate of the Na ion current by the test compounds was calculated according to the following calculating formula with the peak current value generated by the depolarizing pulse. […] The inhibitory rate of Na ion current by each Example Compound was evaluated.

[1] = compound concentration 10 μmol/L, holding potential inactivating 50% Nav 1.7 channel (around −60 mV)
[2] = holding potential inactivating 50% Nav 1.7 channel (around −60 mV)

human SCN9A (Nav 1.7), sequence (Q15858 whole entry): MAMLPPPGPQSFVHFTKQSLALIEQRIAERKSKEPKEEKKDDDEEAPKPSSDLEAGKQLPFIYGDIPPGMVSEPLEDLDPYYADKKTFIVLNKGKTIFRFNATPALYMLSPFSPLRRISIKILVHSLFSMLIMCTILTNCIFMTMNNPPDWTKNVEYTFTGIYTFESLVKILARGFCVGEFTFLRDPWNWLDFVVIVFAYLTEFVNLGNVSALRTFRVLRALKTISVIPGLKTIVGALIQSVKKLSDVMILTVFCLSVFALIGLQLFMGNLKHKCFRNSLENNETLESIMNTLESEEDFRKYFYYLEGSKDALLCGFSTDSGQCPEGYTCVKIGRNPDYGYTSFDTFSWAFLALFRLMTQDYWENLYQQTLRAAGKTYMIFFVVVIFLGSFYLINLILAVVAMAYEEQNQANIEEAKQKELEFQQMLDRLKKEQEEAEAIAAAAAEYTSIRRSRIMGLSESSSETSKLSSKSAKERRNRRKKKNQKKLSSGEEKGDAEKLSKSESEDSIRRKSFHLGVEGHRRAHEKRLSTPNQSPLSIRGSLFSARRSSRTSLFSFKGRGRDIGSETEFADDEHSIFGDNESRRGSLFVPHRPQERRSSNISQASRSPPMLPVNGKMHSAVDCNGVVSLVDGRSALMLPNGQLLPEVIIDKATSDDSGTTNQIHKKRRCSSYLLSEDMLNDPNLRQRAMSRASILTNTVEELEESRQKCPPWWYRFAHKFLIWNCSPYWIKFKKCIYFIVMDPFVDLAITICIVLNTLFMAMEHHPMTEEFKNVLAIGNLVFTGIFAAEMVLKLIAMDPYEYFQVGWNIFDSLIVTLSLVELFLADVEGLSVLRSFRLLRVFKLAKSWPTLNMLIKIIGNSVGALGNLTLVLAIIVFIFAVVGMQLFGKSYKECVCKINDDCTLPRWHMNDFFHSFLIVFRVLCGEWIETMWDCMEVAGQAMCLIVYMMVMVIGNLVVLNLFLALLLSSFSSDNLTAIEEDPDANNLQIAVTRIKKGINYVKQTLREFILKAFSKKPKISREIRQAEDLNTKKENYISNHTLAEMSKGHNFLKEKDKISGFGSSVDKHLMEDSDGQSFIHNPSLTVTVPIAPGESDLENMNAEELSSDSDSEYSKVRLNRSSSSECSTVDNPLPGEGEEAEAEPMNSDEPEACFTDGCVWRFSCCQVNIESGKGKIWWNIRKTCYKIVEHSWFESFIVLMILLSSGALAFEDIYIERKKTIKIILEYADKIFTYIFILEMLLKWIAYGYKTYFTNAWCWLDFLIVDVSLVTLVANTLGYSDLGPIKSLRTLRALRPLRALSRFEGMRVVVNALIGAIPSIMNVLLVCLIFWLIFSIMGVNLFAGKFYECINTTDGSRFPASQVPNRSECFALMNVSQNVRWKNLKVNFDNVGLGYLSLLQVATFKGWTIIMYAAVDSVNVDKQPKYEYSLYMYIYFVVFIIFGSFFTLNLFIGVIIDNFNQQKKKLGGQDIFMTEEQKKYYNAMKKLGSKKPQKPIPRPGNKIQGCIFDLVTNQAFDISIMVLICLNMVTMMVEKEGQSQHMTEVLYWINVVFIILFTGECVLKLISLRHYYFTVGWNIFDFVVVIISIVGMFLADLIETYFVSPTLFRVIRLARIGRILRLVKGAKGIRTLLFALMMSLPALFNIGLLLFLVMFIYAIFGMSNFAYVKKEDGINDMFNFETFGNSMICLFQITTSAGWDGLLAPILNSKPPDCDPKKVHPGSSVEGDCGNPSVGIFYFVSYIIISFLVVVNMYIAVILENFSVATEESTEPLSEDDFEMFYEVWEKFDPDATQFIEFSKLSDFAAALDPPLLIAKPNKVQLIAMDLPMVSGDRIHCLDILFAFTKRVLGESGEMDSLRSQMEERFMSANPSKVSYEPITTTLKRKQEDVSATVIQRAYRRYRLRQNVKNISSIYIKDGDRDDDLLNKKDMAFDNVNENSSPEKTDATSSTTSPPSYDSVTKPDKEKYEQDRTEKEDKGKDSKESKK

Cc1ccc(Oc2ccc3ncn(CC(C)(C)O)c3c2)cc1 [Example 14, 2-methyl-1-[6-(4-methylphenoxy)-1H-benzimidazol-1-yl]propan-2-ol]
inhibition at 10 µM: 68%

Cc1cc(Cl)cc(-c2ccc3c(c2)ncn3CC2(O)COC2)c1 [Example 218]
inhibition at 10 µM [1]: 53%

CC(C)(O)CCn1cnc2ccc(-c3ccc(Cl)cc3)cc21 [Example 171]
inhibition at 10 µM [1]: 60%

Cc1ccc(-c2ccc3c(c2)ncn3CC(C)(C)O)cn1 [Example 183]
inhibition at 100 µM [2]: 30%

CC(C)(O)Cn1cnc2ccc(-c3cccc(Cl)c3)cc21 [Example 139]
inhibition at 10 µM [1]: 35%

OC1(Cn2cnc3ccc(-c4ccc(C(F)(F)F)cc4F)cc32)COC1 [Example 149]
inhibition at 10 µM [1]: 34%

CC(C)(O)CCn1cnc2ccc(-c3ccc(C(F)(F)F)cc3)cc21 [Example 172]
inhibition at 10 µM [1]: 64%

CC(C)(O)CCn1cnc2ccc(Oc3ccc(OC(F)(F)F)cc3)cc21 [Example 97]
inhibition at 10 µM [1]: 83%

CC(C)(O)Cn1cnc2cc(-c3ccc(C(F)(F)F)cc3)ccc21 [Example 184]
inhibition at 10 µM [1]: 67%

O[C@H]1CC[C@H](n2cnc3ccc(Oc4ccc(C(F)(F)F)cn4)cc32)CC1 [Example 117]
inhibition at 100 µM [2]: 44%

CC(C)(O)Cn1cnc2ccc(-c3ccc(F)c(Cl)c3)cc21 [Example 134]
inhibition at 10 µM [1]: 50%

OC1(Cn2cnc3ccc(-c4cc(Cl)ccc4Cl)cc32)COC1 [Example 157]
inhibition at 10 µM [1]: 51%

OC1(Cn2cnc3ccc(Oc4ccc(C(F)(F)F)cn4)cc32)CC1 [Example 57]
inhibition at 10 µM [1]: 47%

CC(C)(O)Cn1cnc2cc(-c3ccccc3Cl)ccc21 [Example 195]
inhibition at 10 µM [1]: 31%

Fc1ccc(Oc2ccc3ncn(CC4CCCO4)c3c2)cc1 (centres unmarked) [Example 2, 6-(4-fluorophenoxy)-1-(tetrahydrofuran-2-ylmethyl)-1H-benzimidazole]
inhibition at 10 µM [1]: 85%

CC(C)(O)CCn1cnc2ccc(Oc3ccc(F)cc3)cc21 [Example 100]
inhibition at 10 µM [1]: 10%

COc1ccc(-c2ccc3ncn(CC(C)(C)O)c3c2)cn1 [Example 125]
inhibition at 10 µM [1]: 13%

CC(C)(O)Cn1cnc2cc(-c3ccc(F)c(Cl)c3)ccc21 [Example 190]
inhibition at 10 µM [1]: 42%

OC1(Cn2cnc3ccc(-c4cc(C(F)(F)F)ccc4F)cc32)COC1 [Example 161]
inhibition at 10 µM [1]: 49%

CC(C)(O)Cn1cnc2ccc(Oc3ccc(OC(F)(F)F)cn3)cc21 [Example 120]
inhibition at 10 µM [1]: 13%

CC(C)(O)Cn1cnc2cc(-c3ccc(C(F)(F)F)nc3)ccc21 [Example 180]
inhibition at 10 µM [1]: 33%

OC1(Cn2cnc3ccc(Oc4ccc(C(F)(F)F)cn4)cc32)COC1 [Example 56, 3-[(6-{[5-(trifluoromethyl)pyridin-2-yl]oxy}-1H-benzimidazol-1-yl)methyl]oxetan-3-ol]
inhibition at 10 µM [1]: 45%

CC(C)(O)Cn1cnc2cc(-c3ccc(Cl)cc3F)ccc21 [Example 188]
inhibition at 10 µM [1]: 51%

CC(C)(O)Cn1cnc2ccc(-c3cc(F)cc(Cl)c3)cc21 [Example 143]
inhibition at 10 µM [1]: 35%

Cc1cc(Cl)cc(-c2ccc3ncn(CC4(O)COC4)c3c2)c1 [Example 169]
inhibition at 10 µM [1]: 46%

COc1cc(F)ccc1-c1ccc2c(c1)ncn2CC(C)(C)O [Example 186]
inhibition at 10 µM [1]: 22%

CC(C)(O)Cn1cnc2cc(Oc3ncc(C(F)(F)F)cn3)ccc21 [Example 52, 2-methyl-1-(5-{[5-(trifluoromethyl)pyrimidin-2-yl]oxy}-1H-benzimidazol-1-yl)propan-2-ol]
inhibition at 10 µM [1]: 46%

OC1(Cn2cnc3cc(-c4cc(C(F)(F)F)ccc4F)ccc32)COC1 [Example 210]
inhibition at 10 µM [1]: 48%

CC(C)(O)CCn1cnc2cc(-c3ccc(C(F)(F)F)cc3)ccc21 [Example 221]
inhibition at 10 µM [1]: 45%

CC(C)(O)Cn1cnc2cc(-c3ccc4ocnc4c3)ccc21 [Example 201]
inhibition at 10 µM [1]: 32%

OC1(Cn2cnc3cc(-c4ccc(C(F)(F)F)cc4Cl)ccc32)COC1 [Example 206]
inhibition at 10 µM [1]: 69%

CC(C)(O)Cn1cnc2ccc(-c3cnoc3)cc21 [Example 144]
inhibition at 10 µM [1]: 19%
